# Measurements reported in PMC10388305, “Synthesis and Evaluation of a Monomethyl Auristatin E—Integrin αvβ6 Binding Peptide–Drug Conjugate for Tumor Targeted Drug Delivery” (Journal of Medicinal Chemistry, 2023).
# Square brackets hold non-standard residues; d marks the D form. Peptide text beside a SMILES is read from it. * marks the point of attachment. Dolaproine = CO[C@@H]([C@@H]1CCCN1)[C@@H](C)C(=O)O; Dil = CC[C@H](C)[C@H](NC)[C@@H](CC(=O)O)OC; X1 = C[C@@H](N*)[C@@H](O)c1ccccc1; NMeV = CN[C@H](C(=O)O)C(C)C
# Legend:
# [1] = test system: DX3puroβ6 (+) cells; experiment: WST-1 cell viability assay, DX3puroβ6; assay type: cell-based; settings: DX3puroβ6 (+); 48 h treatment + 24 h media; mean ± SD
# Description: (§1) Peptides NH2-2 and [^natCu]2 were not toxic to any cells (Figure 3, gray and black, respectively).
# (§2) Cell viability was measured after treatment with either NH2-2, [^natCu]2, MMAE (free, non-targeted drug), NH2-PDC-1, or [^natCu]PDC-1 in DX3puroβ6 (+) and DX3puro (−) cells at variable concentrations up to 5 nM, and in BxPC-3 (+) and MIA PaCa-2 (−) cells at variable concentrations up to 250 nM, or with MMAE at concentrations up to 10 nM. Cells were seeded in a 96 well plate at a density of 6000 cells/well for DX3puroβ6 and DX3puro, and at a density of 10,000 cells/well for BxPC-3 and MIA PaCa-2. DMEM media was used for all cells except for BxPC-3 (RPMI 1640 media). Cells (n = 6–8 wells/cell type/compound) were treated with different concentrations of NH2-2, [^natCu]2, MMAE, NH2-PDC-1, or [^natCu]PDC-1 dissolved in the respective media, as well as their respective media (no treatment) for 48 h (37 °C, 5% CO2), after which the media was removed; cells were washed twice with media (200 μL) and re-incubated in media (37 °C, 5% CO2) for 24 h. The media was then removed and the WST-1 reagent was added to each well, and the cells were incubated for 2 h at 37 °C. The 96 well plates were read at 450 nm by a Multiscan Ascent microplate reader. The percent cell viability was normalized to untreated cells (set as 100% viability) for each cell line.
# [2] = test system: DX3puro (−) cells; experiment: WST-1 cell viability assay, DX3puro; assay type: cell-based; settings: 48 h treatment + 24 h media, up to 5 nM, mean ± SD
# Description: as §1, §2
# [3] = test system: BxPC-3 (+) cells; experiment: WST-1 cell viability assay, BxPC-3; assay type: cell-based; settings: 48 h treatment + 24 h media, mean ± SD
# Description: as §1, §2
# [4] = test system: MIA PaCa-2 (−) cells; experiment: WST-1 cell viability assay, MIA PaCa-2; assay type: cell-based; settings: MIA PaCa-2 (−); 48 h treatment + 24 h media; up to 250 nM (MMAE up to 10 nM); mean ± SD
# Description: as §1, §2
# [5] = test system: DX3puroβ6 (+) cells; experiment: Caspase-3/7 activity assay (ApoTox-Glo), DX3puroβ6; assay type: cell-based; settings: DX3puroβ6 (+); 0.625 nM (MMAE 1 nM, staurosporine 100 nM); 24, 48, 72 h
# Description: (§3) Caspase-3/7 activity was analyzed using an ApoTox-Glo Triplex Assay kit. Cells were seeded in a 96 well plate at the same density and using the same respective media as described for the WST-1 assay and incubated overnight (37 °C, 5% CO2). DX3puroβ6 and DX3puro cells were treated with 1 nM of MMAE (free, non-targeted drug) or 0.625 nM of the other compounds: NH2-2, [^natCu]2, NH2-PDC-1, or [^natCu]PDC-1. BxPC-3 and MIA PaCa-2 cells were treated with 10 nM of MMAE or 250 nM of the other compounds: NH2-2, [^natCu]2, NH2-PDC-1, or [^natCu]PDC-1. All cells were treated with 100 nM of staurosporine as a positive control.[24] Untreated cells (media) were used as a measure of endogenous caspase-3/7 activity (normalized to 1). Cells were treated (n = 4/cell line/compound/time) for 24, 48, or 72 h (37 °C, 5% CO2) prior to washing. After treatment, the media was removed, cells were washed, and Caspase-Glo 3/7 reagent was added, and incubated for 1 h at room temperature. Caspase-3/7 activity was analyzed by measuring luminescence with a Fluoroskan FL microplate reader according to the manufacturer’s protocol.
# [6] = test system: DX3puro (−) cells; experiment: Caspase-3/7 activity assay (ApoTox-Glo), DX3puro; assay type: cell-based; settings: 0.625 nM (MMAE 1 nM, staurosporine 100 nM), 24, 48, 72 h
# Description: as §3
# [7] = test system: BxPC-3 (+) cells; experiment: Caspase-3/7 activity assay (ApoTox-Glo), BxPC-3; assay type: cell-based; settings: 250 nM (MMAE 10 nM, staurosporine 100 nM), 24, 48, 72 h
# Description: as §3
# [8] = test system: MIA PaCa-2 (−) cells; experiment: Caspase-3/7 activity assay (ApoTox-Glo), MIA PaCa-2; assay type: cell-based; settings: 250 nM (MMAE 10 nM, staurosporine 100 nM), 24, 48, 72 h
# Description: as §3
# [9] = test system: DX3puroβ6 (+) and DX3puro (−) tumors; experiment: Therapy study, control groups (half DX3puroβ6 (+), half DX3puro (−) tumors); assay type: in vivo, mice
# Excerpt: Mice treated with [^natCu]PDC-1 had slower tumor growth compared to the groups receiving saline, non-drug bearing peptide [^natCu]2, or free, non-targeted MMAE (Figure 7). […] All mice in the groups treated with saline, non-drug bearing peptide [^natCu]2, or free, non-targeted MMAE had met an end point criterion (≥2 cm in any direction and/or tumor ulceration) by 56 days, 70 days, and 64 days from start of treatment, respectively, with all these groups having the same median survival of 37 days (Figure 7B).
# Figure 7 (A) Average tumor volume over time. (B) Kaplan–Meier survival plot.
# Tumor xenografts were established by subcutaneous injection of either DX3puroβ6 or DX3puro cells (3 × 10^6 cells in 100 μL serum-free DMEM/animal) into the flank. The tumors were allowed to grow for 19 days before the start of treatment (day 0). […] Tumor volumes and body weights (to assess possible systemic toxicity) were measured starting on day 0, and once a week thereafter until the end of the study. Tumor volume (V) was determined according to the equation V = (π/6) × L × W × H, where L is the longest axis, W is the axis perpendicular to L, and H is perpendicular to the plane of L and W. End point determination criteria were: any axis >2 cm, active ulceration, or compromised health of the mouse (>20% loss of body weight from the start of the study). […] Survival curves were determined by Kaplan–Meier method.
# [10] = cited from earlier work
# Description: Tumor xenografts were established by subcutaneous injection of either DX3puroβ6 or DX3puro cells (3 × 10^6 cells in 100 μL serum-free DMEM/animal) into the flank. The tumors were allowed to grow for 19 days before the start of treatment (day 0). Mice were treated with either (1) saline, (2) peptide ([^natCu]2), 6 mg/kg, 1.12 μmol/kg), (3) non-targeted drug (MMAE, 0.3 mg/kg, 0.42 μmol/kg), or (4) PDC ([^natCu]PDC-1, 6 mg/kg, 0.88 μmol/kg). Dosing of MMAE was 0.3 mg/kg as per maximum dose with no physiological response.[25] The [^natCu]PDC-1 treatment groups consisted of n = 10/tumor model, whil ...
smiles,measurement,setting,value
"CC[C@H](C)[C@@H]([C@@H](CC(=O)N1CCC[C@H]1[C@H](OC)[C@@H](C)C(=O)N[C@H](C)[C@@H](O)c1ccccc1)OC)N(C)C(=O)[C@@H](NC(=O)[C@@H](NC)C(C)C)C(C)C [MMAE, monomethyl auristatin E] (H-[NMeV]V[Dil][Dolaproine]-X1)",EC50,[1],0.15 ± 0.02 nM
same,EC50,[2],0.14 ± 0.03 nM
same,EC50,[3],0.5 ± 0.03 nM
same,EC50,[4],0.16 ± 0.01 nM
same,Caspase-3/7 activity (in words),[5],increased caspase-3/7 activity
same,Caspase-3/7 activity (in words),[6],increased caspase-3/7 activity
same,Caspase-3/7 activity (in words),[7],increased caspase-3/7 activity
same,Caspase-3/7 activity (in words),[8],increased caspase-3/7 activity
same,Median survival,"[9]; [natCu]2 6 mg/kg, MMAE 0.3 mg/kg i.v. on days 0, 3, 6, 9, n = 8/group",37 days
same,Time by which all mice had met an end point criterion,[9]; from start of treatment,≤ 64 days
same,Maximum dose with no physiological response,[10],0.3 mg/kg
